According to US20250074946A1, “USE OF SE-DR AFFINITY PEPTIDE IN PREPARING DRUG FOR TREATING RHEUMATIC DISEASE” (HEBEI FITNESS BIOTECHNOLOGY CO., LTD., priority 2021, published 2025):
Where a SMILES comes first, the peptide text is derived from it. Where no end group is shown, it is not given here.

Legend:
[1] = test system: CIA rats with latent tuberculosis infection; details: for Observation on the daily condition of rats: during administration; for Tuberculosis recurrence rate / Inflammation score and area under the time curve (AUC) / Culture of MTB from lungs and spleens of rats at sacrifice: peptides 0.2 mmol, adalimumab 1 mg/kg; for Tuberculosis recurrence rate: 21 days; for Inflammation score and area under the time curve (AUC): tail i.v. once every other day for 21 days; for Culture of MTB from lungs and spleens of rats at sacrifice: sacrifice on day 22
PBMC = PBMC stimulation test, IL-6 in supernatant by ELISA; assay type: cell-based, human; details: PBMC 1×10^6 cell/ml, peptide 10 μg/ml, 5 days of culture
Description: The SE-DR molecule is directly related to the pathogenesis of RA. It can present RA-related autoantigens in vivo, such as type II collagen (CII), heat shock protein 60 (Hsp60), cartilage glycoprotein (HCgp-39) and so on, and further activate autoreactive T cells, leading to the occurrence of rheumatoid arthritis. An important strategy for the treatment of RA is to use competitive inhibition to block the activation of autoreactive T cells by autoantigen peptides. […] Based on the above principles, we have designed and synthesized a series of altered peptide ligands, and screened for their affinity to SE-DR and for the activation ability on the peripheral blood T cells in RA patients. The specific steps and results are shown in Example 1 and Example 2.
3 mL ficoll was added to a 15 mL centrifuge tube, and 4 mL blood sample was then applied on the surface of ficoll. The tube was centrifuged at 400 g at 18-20° C. for 30-40 min. The upper layer of plasma was aspirated with a Pasteur pipette, and the PBMC layer (approximately 2 mL) was aspirated, and added to a 14 mL centrifuge tube previously filled with at least 3 volumes (6 mL) of PBS. The mixture was gently resuspended. The tube was centrifuged at 60-100 g for 10 min at 18-20° C. After centrifugation, the supernatant was removed with a Pasteur pipette, and the resulting cell mass was resuspended in 6-8 mL PBS and centrifuged at 18-20° C. for 10 min at 60-100 g to remove the supernatant. The cells were resuspended in an appropriate amount of 1640 complete medium and diluted to 1×10^6 cell/ml after cell counting. The diluted cell suspension was added to a 96-well plate. The positive control, allosteric peptide, was added to 100 μl cell culture to a final concentration of 10 μg/ml. The mixture was replenished to 200 μL with 1640 complete medium. After 5 days of culture, the supernatant was aspirated, centrifuged at 3000 rpm for 5 minutes, and the level of IL-6 in the supernatant was detected by ELISA.

[2] = test system: CIA mice infected with chronic hepatitis B; experiment: CIA mice infected with chronic hepatitis B (Example 8); assay type: in vivo, mouse; details: for ALT level / Hepatitis B activation rate (Ratio of ALT > 100 U/L): at sacrifice, day 28; for Observation on the daily condition of mice: during administration; for Inflammation score and area under the time curve (AUC): peptides 50 μmol, Abatacept 100 μg, tail i.v. once every other day for 27 days
Experimental: Establishment of chronic hepatitis B model in mice: DBA/1 mice were injected with Raav8-1. 3 HBV (1×10^12 vg/mL) via tail vein to establish HBV chronic hepatitis B model.
DBA/1 mice infected with chronic hepatitis B were used to establish CIA model with chronic hepatitis B infection. Methods: Two days after the mice were injected with Raav8-1.3 HBV (1×10^12 vg/mL) via tail vein, the emulsion of bovine C II and CFA (containing 100 μg collagen) was intradermally injected into the tail head of the mice for immunization. After 21 days, the mice were boosted once by intraperitoneal injection of the emulsion (containing 100 μg collagen) prepared by bovine C II and IFA. Thereafter, the morphological changes of the four paws of the mice were examined every day, and the mice were randomly assigned to the treatment group at inflammation score of 1. […] Another 10 mice with latent hepatitis B infection were not subjected to model establishment and set as the control group. PBS was administrated to both the model group and the control group. The mice in each group were given the corresponding drugs by tail intravenous injection at the volume of 10 ml/kg, once every other day, for 27 consecutive days. The mice were sacrificed on day 28 after administration. The inflammation scores of the four paws of the mice in each group were evaluated during the administration. The serological indicators for virus injection and liver function of the mice were detected on the day of booster immunization (22 days after tail vein injection) and at the time of sacrifice.

[3] = test system: immune system of healthy monkeys; experiment: Immune indicators of cynomolgus monkeys after one month of administration (Example 5); assay type: in vivo, cynomolgus monkey; details: once a day for 4 weeks, end of administration
Description: Cynomolgus monkeys were used to investigate the effects of the SE-DR affinity peptide on the immune indicators of cynomolgus monkeys after continuous administration for one month. […] At the end of administration, the immune indicators, including the serum anti-FNS007 antibodies, the immunoglobulins of different serotypes, the serum complement, the peripheral blood T lymphocyte and the serum cytokines, were observed.

[4] = test system: immune system of healthy rats; experiment: Immune indicators of SD rats after one month of administration (Example 4); assay type: in vivo, rat; details: once a day for 4 weeks, end of administration
Experimental: SD rats were used to investigate the effects of the SE-DR affinity peptides on the immune indicators of the rats after continuous administration for one month. […] At the end of administration, analysis was conducted on the serum anti-FNS007 antibodies, different types of serum immunoglobulins, the serum complement, the peripheral blood T lymphocyte and the serum cytokines.

CIA rats = experiment: CIA rat model: inflammation score AUC and peripheral blood T-cell subtypes (Example 3); assay type: in vivo; details: 0.2 mmol; for Inflammation score and area under the time curve (AUC): female Lewis CIA rats, tail vein once every other day for 15 days; for Th1 (%) / Th2 (%) / Th17 (%) / Treg (%): peripheral blood, […] after end of administration, flow cytometry
Experimental: Collagen-induced arthritis (CIA) model was established by intradermal injection of the emulsion formulated using type II bovine collagen (CII) together with incomplete Freund's adjuvant (IFA) into the tail head of a female Lewis rat. After the model establishment, the morphological changes of rats' four paws were examined every day. […] Except for the model group, the dosage of polypeptide was all set as 0.2 mmol. A control group was also set up, in which the drug was injected into the tail vein once every other day for […]. The area under the curve (AUC) of the inflammation score was used for the efficacy analysis from the day the rats were enrolled, once every other day, until the end of administration.

Molecule | Observation on the daily condition of rats [1] | Tuberculosis recurrence rate [1] | Inflammation score and area under the time curve (AUC) [1] | Culture of MTB from lungs and spleens of rats at sacrifice [1] | IL-6 levels in the supernatant (PBMC) | ALT level [2] | Observation on the daily condition of mice [2] | Inflammation score and area under the time curve (AUC) [2] | CD3% [3] | CD4% [3] | CD8% [3] | IFN-γ [3] | IL-2 [3] | IL-4 [3] | TNF-α [3] | CD3% [4] | CD4% [4] | CD8% [4] | IFN-γ [4] | IL-2 [4] | further results
CC[C@H](C)[C@H](N)C(=O)N[C@@H](Cc1c[nH]c2ccccc12)C(=O)N[C@@H](Cc1ccc(O)cc1)C(=O)N[C@H](C(=O)N[C@@H](CO)C(=O)N[C@@H](CS)C(=O)N[C@@H](Cc1ccccc1)C(=O)NCC(=O)N[C@@H](CS)C(=O)N[C@@H](CCC(=O)O)C(=O)N[C@H](C(=O)N[C@@H](Cc1c[nH]cn1)C(=O)N[C@@H](C)C(=O)N[C@@H](CCSC)C(=O)N[C@@H](CC(C)C)C(=O)O)[C@@H](C)O)[C@@H](C)CC [APL9] (H-IWYISCFGCETHAML-OH; N-terminus and C-terminus assumed) | No abnormality | 0% | 54.49 ± 33.12 | Negative | 2.8 ng/mL | 47.55 ± 18.78 U/L | No abnormality | 97.63 ± 50.13 | 66.91 ± 11.93% | 28.67 ± 14.78% | 28.67 ± 14.78% | 5.01 ± 0.69 pg/mL | 4.60 ± 0.55 pg/mL | 2.24 ± 0.12 pg/mL | 2.38 ± 0.24 pg/mL | 36.08 ± 12.9% | 20.45 ± 8.45% | 17.10 ± 8.82% | 2.35 ± 0.27 pg/mL | 3.03 ± 1.05 pg/mL | Hepatitis B activation rate (Ratio of ALT > 100 U/L) [2]: 0%; IL-4 [4]: 1.95 ± 0.95 pg/mL; TNF-α [4]: 4.79 ± 1.08 pg/mL; Inflammation score and area under the time curve (AUC) (CIA rats): 57.39 ± 39.33; Th1 (%) (CIA rats): 0.20 ± 0.05 %; Th2 (%) (CIA rats): 4.27 ± 0.53%; Th17 (%) (CIA rats): 0.95 ± 0.12 %; Treg (%) (CIA rats): 5.35 ± 0.84 %
YAKQATLALA [APL7] | No abnormality | 0% | 55.93 ± 29.87 | Negative | 3.7 ng/mL | 48.53 ± 20.09 U/L | No abnormality | 96.19 ± 48.25 | 61.83 ± 11.98% | 26.23 ± 7.31% | 23.72 ± 6.35% | 5.27 ± 0.59 pg/mL | 4.24 ± 0.34 pg/mL | 2.04 ± 0.19 pg/mL | 2.44 ± 0.22 pg/mL | 36.69 ± 17^ % | 18.29 ± 9.08% | 18.66 ± 8.61% | 2.33 ± 0.29 pg/mL | 3.06 ± 0.97 pg/mL | IL-4 [4]: 2.55 ± 1.30 pg/mL; TNF-α [4]: 5.42 ± 1.23 pg/mL; Inflammation score and area under the time curve (AUC) (CIA rats): 60.48 ± 37.31; Th1 (%) (CIA rats): 0.17 ± 0.10 %; Th2 (%) (CIA rats): 4.38 ± 0.81 %; Th17 (%) (CIA rats): 0.92 ± 0.08%; Treg (%) (CIA rats): 5.22 ± 0.77 %
MGPKGRTVIIEQSLGSPKVTK [APL21] | No abnormality | 0% | 53.06 ± 37.25 | Negative | 4.2 ng/mL | 48.29 ± 21.24 U/L | No abnormality | 95.71 ± 51.88 | 66.16 ± 4.34% | 23.43 ± 8.46% | 23.43 ± 8.46% | 5.03 ± 0.22 pg/mL | 4.18 ± 0.41 pg/mL | 1.90 ± 0.15 pg/mL | 2.16 ± 0.14 pg/mL | 38.16 ± 8.98% | 18.72 ± 5.85% | 19.06 ± 5.4% | 2.64 ± 0.37 pg/mL | 3.36 ± 1.45 pg/mL | Hepatitis B activation rate (Ratio of ALT > 100 U/L) [2]: 0%; IL-4 [4]: 2.32 ± 1.37 pg/mL; TNF-α [4]: 5.25 ± 1.28 pg/mL; Inflammation score and area under the time curve (AUC) (CIA rats): 59.44 ± 38.29; Th1 (%) (CIA rats): 0.19 ± 0.08 %; Th2 (%) (CIA rats): 4.23 ± 0.47%; Th17 (%) (CIA rats): 0.98 ± 0.10%; Treg (%) (CIA rats): 5.14 ± 0.90 %
